Measurements published in article PMC6522510 (Nature Communications, 2019).
Counter-ions that a name gives are not always drawn. Like-named read-outs stand apart in the source and are kept apart here. Peptide text beside a SMILES is read from it.

Key:
Parameters in all cases: species or system AML cell lines (8); Primary HTS, single concentration about 10 uM, Cell Titer Glo viability; log10 luminescence, per cent inhibition relative to cycloheximide control
Conditions in all cases: 72 h, relative to cycloheximide control, log10 luminescence, inhibitor
[1] = test system: CHRF288-11
[2] = test system: M07e
[3] = test system: CMK
[4] = test system: ML-2
[5] = test system: CMS
[6] = test system: MOLM-13
[7] = test system: U937
[8] = test system: MV4-11

SMILES	CHRF288-11 %inh [1]	M07e %inh [2]	CMK %inh [3]	ML-2 %inh [4]	CMS %inh [5]	MOLM-13 %inh [6]	U937 %inh [7]	MV4-11 %inh [8]	CHRF288-11 %inh ([1]; CHRF288-11 %inh, 10 µM)	M07e %inh ([2]; M07e %inh, 10 µM)	CMK %inh ([3]; CMK %inh, 10 µM)	ML-2 %inh ([4]; ML-2 %inh, 10 µM)	CMS %inh ([5]; CMS %inh, 10 µM)	MOLM-13 %inh ([6]; MOLM-13 %inh, 10 µM)	U937 %inh ([7]; U937 %inh, 10 µM)	MV4-11 %inh ([8]; MV4-11 %inh, 10 µM)
Cc1ccc(Nc2nccc(N(C)c3ccc4c(C)n(C)nc4c3)n2)cc1S(N)(=O)=O [SJ000556680-2, PAZOPANIB | 786034 | GSK-786034 | GW-786034 | GW-786034B | PAZOPANIB HCL (GW786034 HCL)]	59.62%	33.41%	114.3%	7.239%	28.45%	85.38%	10.79%	69.1%								
C/C(O)=C(\C#N)C(=O)Nc1ccc(C(F)(F)F)cc1 [SJ000556684-2, TERIFLUNOMIDE]	13.26%	0.1279%	2.602%	6.049%	4.451%	8.514%	-0.6256%	2.233%								
Cc1[nH]c(/C=C2\C(=O)Nc3ccccc32)c(C)c1CCC(=O)O [SJ000556685-2, ORANTINIB | SU-6668 | TSU-68 | TSU-68 (SU6668, ORANTINIB)]	14.71%	0.796%	1.601%	2.987%	12.46%	33.6%	4.629%	14.82%								
CN(C(=O)c1cc2ccccc2cc1C(=O)C(c1cccc2ccccc12)P(=O)(O)O)C1CCN(C(=O)c2ccccc2)CC1 (stereo not drawn) [SJ000556691-1, CATHEPSIN G INHIBITOR I]	9.27%	0.0007022%	10.35%	0.3338%	2.107%	0.5105%	-1.516%	1.483%								
CO[C@@H]1[C@H](OC(=O)/C=C/C=C/C=C/C=C/C(=O)O)CC[C@]2(CO2)[C@H]1[C@@]1(C)O[C@@H]1CC=C(C)C [SJ000556696-1, FUMAGILLIN]									12.42%	2.083%	-0.5821%	2.951%	10.64%	6.124%	19.23%	13.12%
CO[C@@H]1[C@H](OC(=O)/C=C/C=C/C=C/C=C/C(=O)O)CC[C@]2(CO2)[C@H]1[C@@]1(C)O[C@@H]1CC=C(C)C [SJ000556696-2, FUMAGILLIN]									24.31%	1.679%	-0.114%	3.251%	7.757%	10.06%	20.26%	9.134%
CC(C)C[C@H](N)C(=O)N[C@H](C(=O)N[C@H](C(=O)N[C@@H](Cc1ccc(O)cc1)C(=O)N1CCC[C@H]1C(=O)N[C@@H](Cc1c[nH]c2ccccc12)C(=O)N[C@H](C(=O)O)[C@@H](C)O)C(C)C)C(C)C [SJ000556698-1, SPINORPHIN] (H-LVVYPWT-OH)	-1.007%	-3.453%	0.1545%	-1.792%	4.762%	-0.8143%	0.1872%	-0.248%								
COc1ccc(S(=O)(=O)N2CCN(C(=O)c3ccc(-c4ccccc4)cc3)CC2C(=O)NO)cc1 (stereo not drawn) [SJ000556700-1, N-HYDROXY-1-(4-METHOXYPHENYL)SULFONYL-4-(4-BIPHENYLCARBONYL)PIPERAZINE-2-CARBOXAMIDE]	142.9%	105.4%	129.1%	62.36%	90.96%	33.07%	72.9%	72.89%								
C[C@@H]1CN(c2c(F)c(N)c3c(=O)c(C(=O)O)cn(C4CC4)c3c2F)C[C@H](C)N1 [SJ000556731-1, SPARFLOXACIN]									-1.018%	-0.05975%	-4.344%	2.718%	-1.257%	-3.504%	1.66%	7.588%
C[C@@H]1CN(c2c(F)c(N)c3c(=O)c(C(=O)O)cn(C4CC4)c3c2F)C[C@H](C)N1 [SJ000556731-2, SPARFLOXACIN]									0.9037%	-2.464%	6.161%	2.462%	-0.1151%	6.829%	3.77%	1.115%
C=CC[N+]1([C@H]2C[C@H]3[C@@H]4CC[C@H]5C[C@H](O)[C@@H](N6CCOCC6)C[C@]5(C)[C@H]4CC[C@]3(C)[C@H]2OC(C)=O)CCCC1 [SJ000556732-1, ROCURONIUM BROMIDE]	-4.633%	-1.372%	-9.307%	-0.2233%	-2.237%	-4.64%	-2.855%	0.4653%								
O=C(O[C@H]1C[C@H]2CC[C@@H](C1)[N+]21CCCC1)C(O)(c1ccccc1)c1ccccc1 [SJ000556733-1, TROSPIUM CHLORIDE]									1.082%	0.3246%	-8.303%	2.085%	1.711%	-2.987%	-2.05%	-0.2163%
O=C(O[C@H]1C[C@H]2CC[C@@H](C1)[N+]21CCCC1)C(O)(c1ccccc1)c1ccccc1 [SJ000556733-2, TROSPIUM CHLORIDE]									0.2164%	4.258%	-0.8375%	4.125%	-2.193%	0.236%	-0.2464%	1.274%
Cc1cn([C@@H]2C[C@@H](O)[C@H](CO)O2)c(=O)[nH]c1=O [SJ000556735-1, TELBIVUDINE]	5.146%	0.6931%	-3.078%	2.339%	-2.406%	-1.046%	2.103%	3.878%								
CO[C@H]1/C=C/O[C@@]2(C)Oc3c(C)c(O)c4c(O)c(c(/C=N/N5CCN(C6CCCC6)CC5)c(O)c4c3C2=O)NC(=O)/C(C)=C\C=C\[C@H](C)[C@H](O)[C@@H](C)[C@@H](O)[C@@H](C)[C@H](OC(C)=O)[C@@H]1C [SJ000556738-1, RIFAPENTINE]									-0.1419%	1.814%	-0.8493%	6.792%	9.958%	5.251%	33.42%	4.97%
